Experimental data published in US11718628B2, “SREBP inhibitors comprising a 6-membered central ring” (Capulus Therapeutics, LLC, priority 2018, dated 2023).
Like-named read-outs stand apart in the source and are kept apart here.

Experiments:
[1] = In vivo pharmacokinetic properties in rats (IV and PO); design: species or system male Sprague Dawley rats; conditions: for % F (Bioavailability of oral delivery) / bioavailability: PO 10 mg/kg vs IV 2 mg/kg; for AUC(0-t) / clearance / half-life / Vd / bioavailability / Tmax: male, Sprague Dawley, rat, plasma; for clearance: read-out: Intravenous Delivery (IV) CL; for Vd: read-out: Intravenous Delivery (IV) Vd; for bioavailability: read-out: % F (Bioavailability of oral delivery); for Tmax: read-out: Oral Administration (PO) Tmax
Protocol: (§1) The in vivo pharmacokinetic properties of compounds by both intravenous and oral administration were evaluated in male Sprague Dawley rats or C57BL/6J mice.
(§2) Animals were housed in cages with clean bedding. Certified rodent diet was provided. Water was available ad libitum. Environmental controls for the animal room were set to maintain a temperature of 22° C. to 25° C., humidity of 40-70% RH, and a 12-hour light/12-hour dark cycle. Normal healthy animals certified by the attending veterinarian were selected and acclimatized for minimum three days prior to initiation of study.
Surgical Procedure for Jugular Vein Cannulation of Rats: Rats were anaesthetized with a single dose of ketamine 50 mg/kg i.p.+xylazine 6 mg/kg i.p. The right jugular vein was exposed, a loose ligature was placed caudally, and the cranial end of vein was ligated. A small incision was made between the ligatures into which the catheter (polyethylene 50 tubing of internal diameter 0.58 mm and outer diameter 0.96 mm) was inserted. The catheter was secured in place by tying the loose ligature around the catheterized vessel. A small incision was made in the scapular region to serve as the exit site of the catheter. The catheter was subcutaneously tunneled and exteriorized through scapular incision. A stay suture was placed in the scapular area. Patency was tested, and catheter was filled with a locking solution (heparinized saline) and sealed with a stainless steel plug. The incision was then sutured with sterile suturing material. Anti-septic solution was applied to the sutured site and animal was placed back in the home cage.
(§3) To evaluate pharmacokinetic properties of intravenous delivery, male Sprague Dawley rats were administered 2.00 mg compound/kg animal weight through the tail vein. The concentration of the compound in the plasma of the animals was evaluated at 0.083, 0.25, 0.5, 1, 2, 4, 8, 12 and 24 hr by taking blood samples from the cannulated jugular vein. For the C5Bl/6J mice, blood samples were collected through a capillary, guided in retro-orbital plexus.
To evaluate pharmacokinetic properties of oral delivery, rats (male Sprague Dawley rats) or mice (C5Bl/6J) were administered 10 mg compound/kg animal weight by mouth. The concentration of compound in the plasma of the animals was evaluated at 0.25, 0.5, 1, 2, 4, 6, 8, 12 and 24 hr by taking blood samples from the cannulated jugular vein (rats) or through a capillary, guided in retro-orbital plexus (mice).

[2] = Log D by octanol/aqueous buffer partitioning; type: physicochemical; conditions: pH 7.4, 1-octanol/buffer
Protocol: The Log D of selected compounds was evaluated by octanol/aqueous buffer partitioning. 500 μL of organic phase (1-octanol) was added to each well of a 2 mL deep well plate, followed by 500 μL of buffer and 15 μL of test compound in DMSO (0.15 mM). The plate was vortexed for 10 seconds and incubated at room temperature for 1 hr on a plate shaker at 200 rpm. After incubation, the samples were allowed to equilibrate for 20 min and then centrifuged at 4000 rpm for 30 min for complete phase separation. The distribution of test compound in buffer and octanol phase was analyzed by HPLC-UV. Log D=Log (Area of Octanol/Area of Buffer).

[3] = test system: liver gene expression (ACACA, ACLY, FASN, LSS, PNPLA3); assay: Liver gene expression in mice after oral administration; type: in vivo; conditions: 30 mpk, vs vehicle
Protocol: (§4) The pharmacodynamic properties of selected compounds were evaluated in mice. The animals were housed in cages with clean bedding, and maintained and monitored for good health in accordance with Test Facility SOPs and at the discretion of the laboratory animal veterinarian. Certified rodent diet was provided. Food and water was available ad libitum. Environmental controls for the animal room were set to maintain a temperature of 22° C. to 25° C., humidity of 40-70% RH, and a 12-hour light/[…]. Normal healthy animals certified by the attending veterinarian were selected and acclimatized for minimum three days prior to initiation of study. Animals were identified with body markings.
(§5) Aliquots of the compounds being evaluated were weighed and triturated with 0.5% methylcellulose (with the addition of 5% N-methyl pyrrolidone when required to remove clumping, as for Z-806) to an appropriate dose concentration. Vials were labeled with the information about study number, test item, concentration and date of preparation. A description of appearance of formulation was recorded (e.g., color, turbidity, etc.). The composition of formulation vehicle was recorded. An aliquot of each dose solution was taken before the dosing began and after dosing was finished, and stored at approximately −20° C. or below for subsequent analysis. The animals were dosed orally through oral gavage needle, and time of dosing was recorded.
(§6) Liver Collection at 6 h or 24 h: Immediately after blood withdrawal for pharmacokinetic evaluation (at 6 or at 24 h), liver tissue was collected without perfusion. Animals were euthanized using carbon dioxide gas in a CO2 chamber. The whole blood was drained by cutting the both side jugular vein and abdominal aorta. The liver was separated out. All the liver samples were divided in two parts. The first part (200 mg approx.) was snap frozen using liquid nitrogen as soon as possible. These samples were immediately transferred to −80° C. for storage. The remaining part was weighed and used for bioanalysis.
RNA Processing and Gene Expression Analysis: Liver Tissue RNA was harvested with the RNEasy kit and 20-100 ng used to synthesize cDNA with random primers following the manufacturer's protocol. Quantitative PCR was performed on 1 pg to 100 ng cDNA for the following genes: ACACA, ACLY, FASN, LSS, PNPLA3. Gene expression levels were determined using ΔΔCT method comparing treated to vehicle treated samples as a baseline, and fold change calculated. The average value for all 5 genes above was averaged and termed to Total Fold Change The results from this evaluation are presented in Table 8.

[4] = Plasma and liver compound levels in mice after oral administration; type: in vivo; conditions: 30 mpk; for concentration at 6 h / concentration at 24 h: mouse, 30 mg/kg
Protocol: as §4, §5
After dosing, the mice were anesthetized using gaseous anesthesia. Blood samples were collected through a capillary, guided in retro-orbital plexus, at 6 h or at 24 h. Approximately 100 uL of blood was collected from each mouse, in pre-labeled tubes. The collected blood was stored on ice prior to centrifugation. Blood samples were then centrifuged within 1 hour of collection to separate plasma. Centrifugation was conducted at 2500×g for 15 minutes at 4° C. The plasma was separated and transferred to pre-labeled micro-centrifuge tubes and promptly frozen at −80±10° C. until bioanalysis.
as §6

[5] = In vivo pharmacokinetic properties in mice (IV and PO); design: species or system C57BL/6J mice; conditions: mouse, in vivo
Protocol: as §1, §2, §3
[…] The concentration of compound in the plasma of the animals was evaluated at 0.25, 0.5, 1, 2, 4, 6, 8, 12 and 24 hr by taking blood samples from the cannulated jugular vein (rats) or through a capillary, guided in retro-orbital plexus (mice).

[6] = 10 mg/kg, heading: Oral Administration AUC0-last, PO, 10 mg/kg
[7] = IV, 2 mg/kg, read-out: Intravenous Delivery (IV) AUC0-last
[8] = IV, 2 mg/kg, read-out: Intravenous Delivery (IV) T1/2 (converted)
[9] = PO, 10 mg/kg, read-out: Oral Administration (PO) T1/2 (converted)
[10] = 1-octanol/aqueous buffer, read-out: LogD

SMILES | Intravenous Delivery (IV) CL ([1]; IV, 2 mg/kg) [mL/min/kg] | Intravenous Delivery (IV) T1/2 ([1]; IV, 2 mg/kg) [h] | Intravenous Delivery (IV) Vd ([1]; IV, 2 mg/kg) [L/kg] | % F (Bioavailability of oral delivery) [1] [%] | Oral Administration (PO) AUC0-last ([1]; PO, 10 mg/kg) | Oral Administration (PO) T1/2 ([1]; PO, 10 mg/kg) [h] | Oral Administration (PO) Tmax ([1]; PO, 10 mg/kg) [h] | LogD [2] | Total Gene FC Time (6 h) [3] | Total Gene FC Time (24 h) [3] | Liver ng/mg (6 h) [4] [ng/mg] | Plasma ng/mL (6 h) [4] [ng/mL] | Liver ng/mg 24 h [4] [ng/mg] | Plasma ng/mL (24 h) [4] [ng/mL] | AUC(0-t) [1, 6] [ng·h/mL] | AUC(0-t) [1, 7] [ng·h/mL] | clearance ([1]; IV, 2 mg/kg) [mL/min/kg] | half-life [1, 8] [h] | Vd ([1]; IV, 2 mg/kg) [L/kg] | bioavailability [1] [%] | further results
CC(C)(C)c1cc(-c2cccc(-c3ccc(C(=O)N4CCC(O)CC4)cc3Cl)c2)ccn1 [Compound Z-744] | 13.1 | 1.91 | 2.16 | 8.6 | 1058 | 2.35 | 2 | 4.12 | ++ (0.51-0.7509 = ++) | + (>0.751 = +) | >1000 | 100 to 1000 | >1000 | 100 to 1000 | – | – | – | – | – | – | –
CC(C)(O)c1cc(-c2cncc(-c3ccc(C(=O)N4CCC(O)CC4)cc3Cl)c2)ccn1 [Compound Z-796, (3-chloro-4-(2′-(2-hydroxypropan-2-yl)-[3,4′-bipyridin]-5-yl)phenyl)(4-hydroxypiperidin-1-yl)methanone] | – | – | – | – | – | – | – | – | + (>0.751 = +) | + (>0.751 = +) | – | – | – | – | 7140 | 3800 | 8.78 | 3.08 | 2.37 | 38 | half-life [1, 9]: 3.22 h; Tmax ([1]; PO, 10 mg/kg): 0.667 h; LogD [2, 10]: 2.08; concentration at 6 h ([4]; liver, read-out: Liver ng/mg (6 h)): > 1e+06 ng/g; concentration at 24 h ([4]; liver, read-out: Liver ng/mg 24 h): < 100000 ng/g; concentration at 6 h ([4]; plasma, read-out: Plasma ng/mL (6 h)): 100 to 1000 ng/mL; concentration at 24 h ([4]; plasma, read-out: Plasma ng/mL (24 h)): < 100 ng/mL
CC(C)(C)c1cc(-c2cncc(-c3ccc(NS(C)(=O)=O)cc3Cl)c2)ccn1 [Compound Z-803, N-(4-(2′-(tert-butyl)-[3,4′-bipyridin]-5-yl)-3-chlorophenyl)methanesulfonamide] | – | – | – | – | – | – | – | – | – | – | – | – | – | – | 2580 | 6160 | 5.2 | 4.86 | 2.18 | 8.3 | half-life [1, 9]: 4.37 h; Tmax ([1]; PO, 10 mg/kg): 3.33 h; LogD [2, 10]: 3.84
Cc1cc(C(=O)N2CCC(O)CC2)ccc1-c1cncc(-c2ccnc(C(C)(C)C)c2)c1 [Compound Z-817] | 5.24 | 3.11 | 1.41 | 13 | 3992 | 2.56 | 0.33 | 3.36 | + (>0.751 = +) | + (>0.751 = +) | 100 to 1000 | <100 | <100 | <100 | – | – | – | – | – | – | –
CC(C)(C)c1cc(-c2cncc(-c3c(Cl)cc(C(=O)N4CCC(O)CC4)cc3Cl)c2)ccn1 [Z-826] | 10.7 | 3.19 | 2.97 | 35 | 5387 | 3.05 | 1 | – | + (>0.751 = +) | ++ (0.51-0.7509 = ++) | >1000 | >1000 | >1000 | 100 to 1000 | – | – | – | – | – | – | % F (Bioavailability of oral delivery) [5]: 82%; Intravenous Delivery (IV) AUC0-last ([5]; iv, 2 mg/kg): 3930 ng·h/mL; Intravenous Delivery (IV) CL ([5]; iv, 2 mg/kg): 8.45 mL/min/kg; Intravenous Delivery (IV) T1/2 ([5]; iv, 2 mg/kg): 3.24 h; Intravenous Delivery (IV) Vd ([5]; iv, 2 mg/kg): 2.37 L/kg; Oral Administration (PO) AUC0-last ([5]; po, 10 mg/kg): 15000 ng·h/mL; Oral Administration (PO) T1/2 ([5]; po, 10 mg/kg): 6.2 h; Oral Administration (PO) Tmax ([5]; po, 10 mg/kg): 0.25 h
